Values after ≈ are worked out from the molar mass of the structure shown.
Tested on: Serratia marcescens
Assay: Antimicrobial activity against Serratia marcescens AW isolated from parotidectomy patient
Format: functional

| MIC [µg/mL] | SMILES |
| --- | --- |
| 4 (≈ 8.41 µM) | C[C@@H](O)[C@H]1C(=O)N2C(C(=O)O)=C(S[C@@H]3CN[C@H](C(=O)Nc4cccc(C(=O)O)c4)C3)[C@H](C)[C@H]12 [ERTAPENEM] |
| 32 (≈ 107 µM) | C[C@@H](O)[C@H]1C(=O)N2C(C(=O)O)=C(SCCNC=N)C[C@H]12 [IMIPENEM ANHYDROUS] |
| 8 (≈ 20.9 µM) | C[C@@H](O)[C@H]1C(=O)N2C(C(=O)O)=C(S[C@@H]3CN[C@H](C(=O)N(C)C)C3)[C@H](C)[C@H]12 [MEROPENEM] |

Source: ChEMBL document CHEMBL1145467, “SME-2-producing Serratia marcescens isolate from Switzerland” (2007)
